{"source": "ChEMBL document CHEMBL5120864", "about": "“Targeting Enhancer of Zeste Homolog 2 for the Treatment of Hematological Malignancies and Solid Tumors: Candidate Structure-Activity Relationships Insights and Evolution Prospects” (J Med Chem, 2022)", "key": {"[1]": {"assay": "in vivo", "settings": "rat"}, "[2]": {"system": "A549", "assay": "cells", "format": "functional, cell-based", "settings": "Homo sapiens"}, "[3]": {"target": "T1, Histone-lysine N-methyltransferase EZH2 (Homo sapiens, UniProt Q15910)", "T1 sequence (Q15910 whole entry)": "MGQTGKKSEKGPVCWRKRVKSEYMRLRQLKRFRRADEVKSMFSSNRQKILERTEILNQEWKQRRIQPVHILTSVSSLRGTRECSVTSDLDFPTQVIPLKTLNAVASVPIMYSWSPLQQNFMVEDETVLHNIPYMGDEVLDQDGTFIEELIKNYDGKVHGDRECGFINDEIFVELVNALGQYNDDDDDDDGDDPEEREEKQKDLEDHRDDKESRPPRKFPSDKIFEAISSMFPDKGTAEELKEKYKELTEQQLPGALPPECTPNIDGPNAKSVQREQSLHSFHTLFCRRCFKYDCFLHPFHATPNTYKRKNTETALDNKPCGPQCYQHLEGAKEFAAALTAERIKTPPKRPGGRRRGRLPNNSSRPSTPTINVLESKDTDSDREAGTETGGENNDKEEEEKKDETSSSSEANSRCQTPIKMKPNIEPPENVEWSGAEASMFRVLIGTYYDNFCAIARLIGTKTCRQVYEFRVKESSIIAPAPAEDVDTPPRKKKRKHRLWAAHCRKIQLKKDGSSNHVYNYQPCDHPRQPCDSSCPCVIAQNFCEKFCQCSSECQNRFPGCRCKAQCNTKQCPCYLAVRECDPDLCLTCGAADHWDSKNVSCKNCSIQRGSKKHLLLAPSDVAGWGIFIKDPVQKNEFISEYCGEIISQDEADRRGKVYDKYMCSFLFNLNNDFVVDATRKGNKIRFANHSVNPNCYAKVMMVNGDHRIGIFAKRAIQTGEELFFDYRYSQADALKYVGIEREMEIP"}, "[4]": {"system": "NCI-H1299", "assay": "cells", "format": "functional, cell-based", "settings": "Homo sapiens"}, "[5]": {"system": "PC-3", "assay": "cells", "format": "functional, cell-based", "settings": "Homo sapiens"}, "[6]": {"system": "NCI-H1975", "assay": "cells", "format": "functional, cell-based", "settings": "Homo sapiens"}, "[7]": {"system": "BT-474", "assay": "cells", "format": "functional, cell-based", "settings": "Homo sapiens, BT-474, 72 h"}, "[8]": {"assay": "cells", "format": "functional, cell-based", "settings": "Homo sapiens, WSU-FSCCL, 48 h"}, "[9]": {"system": "MDA-MB-231", "assay": "cells", "format": "functional, cell-based", "settings": "Homo sapiens, MDA-MB-231, 72 h"}, "[10]": {"target": "T2, Histone-lysine N-methyltransferase EZH1 (Homo sapiens, UniProt Q92800)", "T2 sequence (Q92800 whole entry)": "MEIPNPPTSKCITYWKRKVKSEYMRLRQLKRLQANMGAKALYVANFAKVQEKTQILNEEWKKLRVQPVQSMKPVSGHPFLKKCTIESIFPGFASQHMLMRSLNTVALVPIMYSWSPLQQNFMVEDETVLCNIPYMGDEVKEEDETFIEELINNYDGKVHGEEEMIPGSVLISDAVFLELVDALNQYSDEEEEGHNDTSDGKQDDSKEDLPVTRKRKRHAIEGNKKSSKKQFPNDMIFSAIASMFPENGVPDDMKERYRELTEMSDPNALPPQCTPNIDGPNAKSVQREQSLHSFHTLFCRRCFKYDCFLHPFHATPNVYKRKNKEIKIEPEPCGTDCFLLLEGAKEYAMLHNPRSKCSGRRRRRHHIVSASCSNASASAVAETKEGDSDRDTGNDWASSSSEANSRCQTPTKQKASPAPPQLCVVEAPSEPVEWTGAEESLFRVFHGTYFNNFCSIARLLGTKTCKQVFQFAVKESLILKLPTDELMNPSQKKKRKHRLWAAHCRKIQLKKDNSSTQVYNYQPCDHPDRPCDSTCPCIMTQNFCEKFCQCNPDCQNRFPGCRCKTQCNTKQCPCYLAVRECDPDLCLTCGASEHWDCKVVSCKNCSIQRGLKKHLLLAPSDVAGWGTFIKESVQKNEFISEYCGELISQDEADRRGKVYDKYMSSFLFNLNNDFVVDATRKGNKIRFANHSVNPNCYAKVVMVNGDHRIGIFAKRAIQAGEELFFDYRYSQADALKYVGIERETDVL"}, "[11]": {"system": "HepG2", "assay": "cells", "format": "functional, cell-based", "settings": "Homo sapiens, HepG2, 24 h"}, "[12]": {"system": "HepG2", "format": "functional, Homo sapiens", "settings": "time 24 hrs"}, "[13]": {"system": "MCF7", "format": "functional, Homo sapiens", "settings": "time 24 hrs"}, "[14]": {"system": "MCF7", "assay": "cells", "format": "functional, cell-based", "settings": "Homo sapiens, MCF7, 24 h"}, "[15]": {"system": "PC-3", "assay": "cells", "format": "functional, cell-based", "settings": "Homo sapiens, PC-3, 24 h"}, "[16]": {"system": "PC-3", "format": "functional, Homo sapiens", "settings": "time 24 hrs"}, "[17]": {"system": "HCT-15", "assay": "cells", "format": "functional, cell-based", "settings": "Homo sapiens, HCT-15, 96 h"}, "[18]": {"system": "MDA-MB-231", "assay": "cells", "format": "functional, cell-based", "settings": "Homo sapiens, MDA-MB-231, 96 h"}, "[19]": {"target": "T1, Histone-lysine N-methyltransferase EZH2", "remark": "listed apart in the source"}, "[20]": {"target": "T3, Histone-lysine N-methyltransferase EZH2 (Homo sapiens, UniProt Q15910, Y641F)", "T3 sequence (Q15910 whole entry Y641F)": "as the sequence (Q15910 whole entry) above, with Y641F counted along it"}, "[21]": {"system": "SU-DHL-6", "assay": "cells", "format": "functional, cell-based", "settings": "Homo sapiens, SU-DHL-6, 96 h"}, "[22]": {"target": "T2, Histone-lysine N-methyltransferase EZH1", "remark": "listed apart in the source"}, "[23]": {"system": "Pfeiffer", "assay": "cells", "format": "functional, cell-based", "settings": "Homo sapiens, 96 h"}, "[24]": {"assay": "physchem", "settings": "buffer"}, "[25]": {"settings": "mouse, in vivo"}, "[26]": {"target": "T1, Histone-lysine N-methyltransferase EZH2", "remark": "listed apart in the source"}, "[27]": {"target": "T1, Histone-lysine N-methyltransferase EZH2", "remark": "listed apart in the source"}, "[28]": {"target": "T3, Histone-lysine N-methyltransferase EZH2", "remark": "listed apart in the source"}, "[29]": {"system": "KARPAS-422", "assay": "animal or person", "format": "functional, Homo sapiens", "settings": "Mus musculus, route po"}, "[30]": {"target": "T1, Histone-lysine N-methyltransferase EZH2", "remark": "listed apart in the source"}, "[31]": {"system": "KARPAS-422", "assay": "cells", "format": "functional", "settings": "Homo sapiens, time 10-15 day"}, "[32]": {"system": "MCF7", "assay": "cells", "format": "functional, cell-based", "settings": "Homo sapiens, MCF7, 96 h"}, "[33]": {"target": "T2, Histone-lysine N-methyltransferase EZH1", "remark": "listed apart in the source"}, "[34]": {"system": "ZR-75-1", "assay": "cells", "format": "functional, cell-based", "settings": "Homo sapiens, ZR-75-1, 96 h"}}, "data": [{"compound": "Nc1nccc2c1ncn2[C@@H]1C=C(CO)[C@@H](O)[C@H]1O", "values": [{"measurement": "half-life", "setting": "[1]", "result": 1.1, "unit": "h"}, {"measurement": "IC50", "setting": "[2]", "result": 240, "unit": "nM"}, {"measurement": "IC50", "setting": "[3]", "result": 80, "unit": "nM"}, {"measurement": "IC50", "setting": "[4]", "result": 210, "unit": "nM"}, {"measurement": "IC50", "setting": "[5]", "result": 190, "unit": "nM"}, {"measurement": "IC50", "setting": "[6]", "result": 80, "unit": "nM"}]}, {"compound": "COc1cc2nc(N3CCN(C)CC3)nc(NC3CCN(Cc4ccccc4)CC3)c2cc1OC", "values": [{"measurement": "IC50", "setting": "[7]", "result": 2100, "unit": "nM"}, {"measurement": "IC50", "setting": "[8]", "result": 3400, "unit": "nM"}, {"measurement": "IC50", "setting": "[9]", "result": 4300, "unit": "nM"}]}, {"compound": "CCC(CC)n1ccc2c(C(=O)NCc3c(C)cc(C)[nH]c3=O)cc(C#N)cc21", "values": [{"measurement": "IC50", "setting": "[10]", "result": 13, "unit": "nM"}]}, {"compound": "COc1ccc(C2SCCC(=O)N2Nc2nc3ccccc3[nH]2)cc1", "note": "(configuration not stated)", "values": [{"measurement": "IC50", "setting": "[11]", "result": 8950, "unit": "nM"}, {"measurement": "inhibition (INH)", "setting": "[12]", "result": 64, "unit": "%"}, {"measurement": "inhibition (INH)", "setting": "[13]", "result": 50.8, "unit": "%"}, {"measurement": "IC50", "setting": "[14]", "result": 16600, "unit": "nM"}, {"measurement": "IC50", "setting": "[15]", "result": 27000, "unit": "nM"}, {"measurement": "inhibition (INH)", "setting": "[16]", "result": 36.7, "unit": "%"}]}, {"compound": "COc1cccc2nc(N3CCCN(C)CC3)cc(NC3CCN(C)CC3)c12", "values": [{"measurement": "IC50", "setting": "[17]", "result": 7600, "unit": "nM"}, {"measurement": "IC50", "setting": "[18]", "result": 2450, "unit": "nM"}]}, {"compound": "CCN(c1cc(-c2ccc(CN3CCN(C)CC3)cc2)cc(C(=O)NCc2c3c(c(C)[nH]c2=O)CCCC3)c1C)C1CCCCC1", "values": [{"measurement": "IC50", "setting": "[19]", "result": 9.8, "unit": "nM"}, {"measurement": "IC50", "setting": "[20]", "result": 182, "unit": "nM"}, {"measurement": "IC50", "setting": "[21]", "result": 2010, "unit": "nM"}, {"measurement": "IC50", "setting": "[22]", "result": 136, "unit": "nM"}, {"measurement": "IC50", "setting": "[23]", "result": 1430, "unit": "nM"}]}, {"compound": "CCN(c1cc(-c2ccccc2)cc(C(=O)NCc2c3c(c(C)[nH]c2=O)CCCC3)c1C)C1CCOCC1", "values": [{"measurement": "solubility", "setting": "[24]", "result": 185, "unit": "µg/mL"}]}, {"compound": "COc1cc(C)[nH]c(=O)c1CNC(=O)c1c(C)n(C(C)C2CCN(C)C(C(F)(F)F)C2)c2ccccc12", "note": "(configuration not stated)", "values": [{"measurement": "CL", "setting": "[25]", "result": 55, "unit": "µL/min/mg"}, {"measurement": "IC50", "setting": "[26]", "result": "< 400000", "unit": "nM"}, {"measurement": "IC50", "setting": "[27]", "result": "< 100", "unit": "nM"}, {"measurement": "IC50", "setting": "[28]", "result": "< 100", "unit": "nM"}]}, {"compound": "COC1CN([C@H]2CC[C@H]([C@@H](C)c3scc(C(=O)NCc4c(C)cc(C)[nH]c4=O)c3C)CC2)C1", "values": [{"measurement": "inhibition in vivo at 50 mg/kg", "setting": "[29]", "result": 53, "unit": "%"}, {"measurement": "IC50", "setting": "[27]", "result": 1.43, "unit": "nM"}, {"measurement": "IC50", "setting": "[28]", "result": 0.93, "unit": "nM"}]}, {"compound": "C=CC(=O)Nc1cc(-c2ccc(N3CCNCC3)nc2)cc(C(=O)NCc2c(CC)cc(C)[nH]c2=O)c1C", "values": [{"measurement": "IC50", "setting": "[30]", "result": 47, "unit": "nM"}]}, {"compound": "CCN1CCN(c2ccc(-c3cc(C(=O)NCc4c(C)cc(C)[nH]c4=O)c(C)c4c3O[C@](C)(CN3CCOCC3)O4)cn2)CC1", "values": [{"measurement": "GI50", "setting": "[31]", "result": 210, "unit": "nM"}]}, {"compound": "CCN(c1cc(-c2ccc(N3CCN(C)CC3)cc2)cc(C(=O)NCc2c3c(c(C)[nH]c2=O)CCCC3)c1C)C1CCOCC1", "values": [{"measurement": "IC50", "setting": "[32]", "result": 990, "unit": "nM"}, {"measurement": "IC50", "setting": "[20]", "result": 15, "unit": "nM"}, {"measurement": "IC50", "setting": "[33]", "result": 81, "unit": "nM"}, {"measurement": "IC50", "setting": "[34]", "result": 89, "unit": "nM"}]}]}
